# Test results published in patent US20240327381A1, “Compounds and Compositions for Selective Degradation of Engineered Proteins” (Celgene Corporation, priority 2023, published 2024).
# Where two headings read alike, the source gives them in different places.
# Experiments:
# [1] = target: T1, IKZF1 ZNF2_ZNF3 Q1F degron-tagged CD19 CAR (Homo sapiens, UniProt Q13422, Q146F); test: Degradation of Q1F degron-tagged CD19 CAR in Jurkat cells (flow cytometry of CAR levels); type: cell-based
# T1 construct: ZNF2_ZNF3 Q1F degron (GERPFFCNQCGASFTQKGNLLRHIKLHSGEKPFKCHLCNYACRRRDALTGHLRTHS); fused on or other part: anti-CD19 scFv, CD28 transmembrane domain, 4-1BB costimulatory domain, CD3 zeta signaling domain (the CAR that carries the degron), and Nluc
# Text: Q1F degron-targeting compounds were screened in Jurkat cells engineered to express a IKZF1 ZNF2_ZNF3 Q1F. The cell line was generated with lentiviral vectors containing CD19 CARs tagged with IKZF1 ZNF2_ZNF3 QIF Nluc, which were transduced into Jurkat cells. The CD19 CAR comprised an anti-CD19 scFv, a CD28 transmembrane domain, a 4-1BB costimulatory domain, a CD3ζ signaling domain, and a ZNF2_ZNF3 Q1F degron (GERPFFCNQCGASFTQKGNLLRHIKLHSGEKPFKCHLCNYACRRRDALTGHLRTHS; SEQ ID NO: 1; Q1F substitution underlined). Transduced cells were treated with a titration of each small molecule or no drug and then incubated at 37° C. for 18 hours. Cells were washed and stained with appropriate staining reagent to measure CAR levels. The cells were incubated at 4° C. in the staining reagents for 20 mins and then washed 3 times before being read on the flow cytometer. CAR levels were normalized to cells that had not been treated with drug. EC50 and Ymin values were calculated using the resulting titration curve. This identified small molecules that potently degraded the Q1F degron-tagged CARs (Table 1).
# (§1) To determine the EC50 value of a compound for the degradation of a given substrate (concentration of compound that achieves half the maximum degradation observed), a four-parameter logistic model (sigmoidal dose-response model) (FIT=(A+{(B−A)/1+[(C/x)D]})) where C is the inflection point (EC50), D is the […], and A and B are the low and high limits of the fit, respectively) was used. All substrate degradation curves were processed and evaluated using ActivityBase (IDBS), a data analysis software package. Ymax is the % protein degraded (Ymin=100−Ymax and is minimum percent protein remaining).
# Helios = target: T2, Helios (Homo sapiens, UniProt Q9UKS7); test: Helios degradation in Jurkat/Helios/HiBit cells (Nano-Glo luminescence); type: cell-based; details: 18 hr, read-out: Helios Jurkat Hibit IC50
# T2 construct: endogenous in cells; host or cells: Jurkat cells, CRISPR/Cas9 knock-in of HiBit at the IKZF2 locus
# Procedure: For Helios, a stable Jurkat cell line was engineered using CRISPR/Cas9 to insert an in-frame HiBit tag into the carboxy-terminal reading frame of the IKZF2 gene. The sequence of human Helios is shown below:
# Test compounds were transferred to 1536 well plates using an acoustic dispenser, and Jurkat/Helios/HiBit cells in DMEM/10% FCS were plated at 10,000 cells/well in a final volume of 5 μL. Cells were incubated at 37 C, 95% RH for 18 hr. Luciferase activity was measured by adding 2 μL/well of Nano-Glo reagent (Promega), incubating at RT for 30 min, and reading luminescence on a microtiter plate reader.
# as §1
# [2] = Jurkat cells expressing CD19 CAR tagged with IKZF1 ZNF2_ZNF3 Q1F; 18 hours at 37° C.; CAR levels normalized to untreated cells; read-out: Q1F Jurkat IC50
# [3] = Ymax is the % protein degraded; Jurkat cells expressing Q1F degron-tagged CD19 CAR; 18 hours; read-out: Q1F Jurkat-YMax
# T2 sequence (Q9UKS7 whole entry): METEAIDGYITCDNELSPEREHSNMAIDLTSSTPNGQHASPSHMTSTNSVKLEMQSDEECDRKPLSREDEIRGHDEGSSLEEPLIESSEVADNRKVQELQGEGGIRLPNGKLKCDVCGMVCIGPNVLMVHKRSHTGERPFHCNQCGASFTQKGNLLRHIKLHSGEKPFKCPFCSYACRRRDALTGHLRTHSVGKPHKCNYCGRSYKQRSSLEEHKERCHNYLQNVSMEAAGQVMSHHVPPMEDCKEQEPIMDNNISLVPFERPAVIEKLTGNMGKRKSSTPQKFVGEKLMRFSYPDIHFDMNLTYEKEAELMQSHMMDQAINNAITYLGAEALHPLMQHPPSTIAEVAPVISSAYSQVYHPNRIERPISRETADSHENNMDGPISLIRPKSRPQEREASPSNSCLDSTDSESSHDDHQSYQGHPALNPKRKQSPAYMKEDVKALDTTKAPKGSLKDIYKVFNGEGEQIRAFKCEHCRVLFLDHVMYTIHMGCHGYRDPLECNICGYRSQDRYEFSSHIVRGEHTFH
# T2 sequence (Q96SW2 whole entry, further chain): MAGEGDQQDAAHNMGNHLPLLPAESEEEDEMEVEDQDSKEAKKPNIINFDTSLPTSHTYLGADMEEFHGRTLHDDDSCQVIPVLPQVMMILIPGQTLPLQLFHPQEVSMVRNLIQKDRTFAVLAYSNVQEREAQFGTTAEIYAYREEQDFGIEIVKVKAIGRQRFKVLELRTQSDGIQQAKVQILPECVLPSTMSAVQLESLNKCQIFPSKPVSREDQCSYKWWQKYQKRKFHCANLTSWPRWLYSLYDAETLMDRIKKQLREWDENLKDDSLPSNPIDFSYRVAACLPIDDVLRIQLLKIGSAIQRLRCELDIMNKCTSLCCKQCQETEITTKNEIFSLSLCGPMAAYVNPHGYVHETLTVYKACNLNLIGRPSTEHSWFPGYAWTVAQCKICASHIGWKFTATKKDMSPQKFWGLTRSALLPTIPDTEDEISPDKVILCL
# T2 sequence (Q16531 whole entry partner): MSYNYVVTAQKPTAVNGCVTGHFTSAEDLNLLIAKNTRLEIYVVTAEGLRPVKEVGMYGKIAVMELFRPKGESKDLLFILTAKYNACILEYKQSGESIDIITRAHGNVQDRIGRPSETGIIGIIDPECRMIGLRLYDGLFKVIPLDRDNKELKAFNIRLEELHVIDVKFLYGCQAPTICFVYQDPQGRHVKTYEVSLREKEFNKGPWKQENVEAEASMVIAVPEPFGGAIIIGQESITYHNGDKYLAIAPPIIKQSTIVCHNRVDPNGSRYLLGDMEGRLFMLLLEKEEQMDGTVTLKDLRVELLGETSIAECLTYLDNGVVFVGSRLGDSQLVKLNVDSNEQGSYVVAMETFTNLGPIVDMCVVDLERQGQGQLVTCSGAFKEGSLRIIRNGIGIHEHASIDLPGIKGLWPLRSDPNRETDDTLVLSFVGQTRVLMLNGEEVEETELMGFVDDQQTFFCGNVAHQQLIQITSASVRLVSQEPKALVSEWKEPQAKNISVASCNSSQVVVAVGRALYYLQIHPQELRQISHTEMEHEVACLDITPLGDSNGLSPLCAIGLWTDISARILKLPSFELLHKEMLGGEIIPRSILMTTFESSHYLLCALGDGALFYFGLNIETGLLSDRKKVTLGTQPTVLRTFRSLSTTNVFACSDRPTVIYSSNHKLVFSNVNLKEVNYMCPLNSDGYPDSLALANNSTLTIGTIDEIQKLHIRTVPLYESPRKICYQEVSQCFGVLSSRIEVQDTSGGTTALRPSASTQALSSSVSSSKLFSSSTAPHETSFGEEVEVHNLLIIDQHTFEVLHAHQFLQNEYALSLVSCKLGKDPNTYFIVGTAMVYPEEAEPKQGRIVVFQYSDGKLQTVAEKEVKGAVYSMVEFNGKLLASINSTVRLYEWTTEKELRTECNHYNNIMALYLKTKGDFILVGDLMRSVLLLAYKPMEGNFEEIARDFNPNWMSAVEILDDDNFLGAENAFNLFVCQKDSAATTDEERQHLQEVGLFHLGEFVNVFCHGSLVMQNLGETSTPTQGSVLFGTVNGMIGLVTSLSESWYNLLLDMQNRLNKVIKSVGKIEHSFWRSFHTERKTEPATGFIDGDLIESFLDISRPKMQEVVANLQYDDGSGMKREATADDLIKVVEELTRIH
# T1 sequence (Q13422 whole entry Q146F, the tested form may be a part): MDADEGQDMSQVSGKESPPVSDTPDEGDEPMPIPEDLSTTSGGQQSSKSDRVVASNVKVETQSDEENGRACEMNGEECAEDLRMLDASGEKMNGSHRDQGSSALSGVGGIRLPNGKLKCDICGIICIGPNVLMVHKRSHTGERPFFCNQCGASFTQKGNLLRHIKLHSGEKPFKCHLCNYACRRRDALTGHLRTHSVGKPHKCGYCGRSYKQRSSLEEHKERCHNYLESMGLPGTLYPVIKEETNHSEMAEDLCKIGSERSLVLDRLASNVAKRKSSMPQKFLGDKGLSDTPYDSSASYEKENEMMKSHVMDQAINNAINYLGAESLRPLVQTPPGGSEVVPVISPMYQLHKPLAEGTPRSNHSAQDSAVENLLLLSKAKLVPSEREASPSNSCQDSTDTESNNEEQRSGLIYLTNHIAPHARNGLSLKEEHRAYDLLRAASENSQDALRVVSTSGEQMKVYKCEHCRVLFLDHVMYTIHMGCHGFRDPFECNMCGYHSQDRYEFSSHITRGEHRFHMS
SMILES,"DC50 [1, 2] [µM]","Dmax [1, 3] [%]",DC50 (Helios) [µM],"Dmax ([1]; Jurkat, 18 h, read-out: Q1F Jurkat-YMax) [%]",DC50 ([1]; read-out: Q1F Jurkat IC50; Jurkat cells expressing CD19 CAR tagged with IKZF1 ZNF2_ZNF3 Q1F; 18 hours at 37° C.; CAR levels normalized to untreated cells) [µM]
"O=C1CCC(N2Cc3cc(C4CCN(CC5CCCCC5)CC4)c(F)cc3C2=O)C(=O)N1 (centres unmarked) [Compound 82, 3-(5-(1-(cyclohexylmethyl)piperidin-4-yl)-6-fluoro-1-oxoisoindolin-2-yl)piperidine-2,6-dione]",0.00172,88.2,≥ 10,,
"O=C1CCC(N2Cc3c(cc(F)c(C4(O)CCN(Cc5coc(-c6cccs6)n5)CC4)c3F)C2=O)C(=O)N1 (centres unmarked) [Compound 14, 3-(4,6-difluoro-5-(4-hydroxy-1-((2-(thiophen-2-yl)oxazol-4-yl)methyl)piperidin-4-yl)-1-oxoisoindolin-2-yl)piperidine-2,6-dione]",0.0224,66.9,≥ 10,,
"CN(CCN1CCC(O)(c2c(F)cc3c(c2F)CN(C2CCC(=O)NC2=O)C3=O)CC1)S(=O)(=O)c1ccccc1 (centres unmarked) [Compound 40, N-[2-[4-[2-(2,6-dioxo-3-piperidyl)-4,6-difluoro-1-oxo-isoindolin-5-yl]-4-hydroxy-1-piperidyl]ethyl]-N-methyl-benzenesulfonamide]",0.0677,60,≥ 10,,
"O=C1CCC(N2Cc3c(cc(F)c(-c4ccc5c(n4)NCCC5)c3F)C2=O)C(=O)N1 (centres unmarked) [Compound 94, 3-(4,6-difluoro-1-oxo-5-(5,6,7,8-tetrahydro-1,8-naphthyridin-2-yl)isoindolin-2-yl) piperidine-2,6-dione]",0.655,60.9,≥ 10,,
"CCCCN1CCC(c2c(F)cc3c(c2F)CN(C2CCC(=O)NC2=O)C3=O)CC1 (centres unmarked) [Compound 115, 3-(5-(1-butylpiperidin-4-yl)-4,6-difluoro-1-oxoisoindolin-2-yl)piperidine-2,6-dione]",0.00666,79.7,≥ 10,,
"O=C1CCC(N2Cc3c(cc(F)c(C4(O)CCN(Cc5ccccc5C(F)(F)F)CC4)c3F)C2=O)C(=O)N1 (centres unmarked) [Compound 32, 3-(4,6-difluoro-5-(4-hydroxy-1-(2-(trifluoromethyl)benzyl)piperidin-4-yl)-1-oxoisoindolin-2-yl)piperidine-2,6-dione]",0.00954,80.2,≥ 10,,
"CC(C)CCN1CCC(c2c(F)cc3c(c2F)CN(C2CCC(=O)NC2=O)C3=O)CC1 (centres unmarked) [Compound 113, 3-(4,6-difluoro-5-(1-isopentylpiperidin-4-yl)-1-oxoisoindolin-2-yl)piperidine-2,6-dione]",0.00273,82.5,≥ 10,,
"Cn1cnc2ccc(CN3CCC(c4c(F)cc5c(c4F)CN(C4CCC(=O)NC4=O)C5=O)CC3)cc21 (centres unmarked) [Compound 106, 3-(4,6-difluoro-5-(1-((1-methyl-1H-benzo[d]imidazol-6-yl)methyl)piperidin-4-yl)-1-oxoisoindolin-2-yl)piperidine-2,6-dione]",0.000698,91.8,≥ 10,,
"CN(C)CCCOc1ccc(CN2CCC(c3c(F)cc4c(c3F)CN(C3CCC(=O)NC3=O)C4=O)CC2)cc1 (centres unmarked) [Compound 108, 3-(5-(1-(4-(3-(dimethylamino)propoxy)benzyl)piperidin-4-yl)-4,6-difluoro-1-oxoisoindolin-2-yl)piperidine-2,6-dione]",0.00366,83.1,≥ 10,,
"COCCN1CCC(c2c(F)cc3c(c2F)CN(C2CCC(=O)NC2=O)C3=O)CC1 (centres unmarked) [Compound 124, 3-(4,6-difluoro-5-(1-(2-methoxyethyl)piperidin-4-yl)-1-oxoisoindolin-2-yl)piperidine-2,6-dione]",0.011,76.7,≥ 10,,
"Cc1nc(C)c(S(=O)(=O)N(C)CCN2CCC(O)(c3c(F)cc4c(c3F)CN(C3CCC(=O)NC3=O)C4=O)CC2)s1 (centres unmarked) [Compound 39, N-[2-[4-[2-(2,6-dioxo-3-piperidyl)-4,6-difluoro-1-oxo-isoindolin-5-yl]-4-hydroxy-1-piperidyl]ethyl]-N,2,4-trimethyl-thiazole-5-sulfonamide]",,,≥ 10,58.9,0.0938
"Cc1ccc(CN2CCC(O)(c3c(F)cc4c(c3F)CN(C3CCC(=O)NC3=O)C4=O)CC2)cc1 (centres unmarked) [Compound 27, 3-(4,6-difluoro-5-(4-hydroxy-1-(4-methylbenzyl)piperidin-4-yl)-1-oxoisoindolin-2-yl)piperidine-2,6-dione]",0.0172,76.2,,,
"O=C1CCC(N2Cc3c(cc(F)c(C4CCN(CCCOc5ccccc5)CC4)c3F)C2=O)C(=O)N1 (centres unmarked) [Compound 118, 3-(4,6-difluoro-1-oxo-5-(1-(3-phenoxypropyl)piperidin-4-yl)isoindolin-2-yl)piperidine-2,6-dione]",0.00286,83,≥ 10,,
"Cc1ccc(CN2CCC(O)(c3c(F)cc4c(c3F)CN(C3CCC(=O)NC3=O)C4=O)CC2)cc1C (centres unmarked) [Compound 43, 3-[5-[1-[(3,4-dimethylphenyl)methyl]-4-hydroxy-4-piperidyl]-4,6-difluoro-1-oxo-isoindolin-2-yl]piperidine-2,6-dione]",0.00275,80.2,≥ 10,,
"CS(=O)(=O)CCCN1CCC(c2c(F)cc3c(c2F)CN(C2CCC(=O)NC2=O)C3=O)CC1 (centres unmarked) [Compound 121, 3-(4,6-difluoro-5-(1-(3-(methylsulfonyl)propyl)piperidin-4-yl)-1-oxoisoindolin-2-yl)piperidine-2,6-dione]",0.0204,76.7,≥ 10,,
"O=C1CCC(N2Cc3cc(C4CCN(Cc5cccc6ncsc56)CC4)c(F)cc3C2=O)C(=O)N1 (centres unmarked) [Compound 91, 3-(5-(1-(benzo[d]thiazol-7-ylmethyl)piperidin-4-yl)-6-fluoro-1-oxoisoindolin-2-yl)piperidine-2,6-dione]",0.0039,92.1,≥ 10,,
"O=C1CCC(N2Cc3c(cc(F)c(C4(O)CCN(Cc5ncccc5Br)CC4)c3F)C2=O)C(=O)N1 (centres unmarked) [Compound 24, 3-(5-(1-((3-bromopyridin-2-yl)methyl)-4-hydroxypiperidin-4-yl)-4,6-difluoro-1-oxoisoindolin-2-yl)piperidine-2,6-dione]",0.101,57.3,,,
"O=C1CCC(N2Cc3c(cc(F)c(C4(O)CCN(Cc5cc(F)c(C(F)(F)F)cc5F)CC4)c3F)C2=O)C(=O)N1 (centres unmarked) [Compound 21, 3-(5-(1-(2,5-difluoro-4-(trifluoromethyl)benzyl)-4-hydroxypiperidin-4-yl)-4,6-difluoro-1-oxoisoindolin-2-yl)piperidine-2,6-dione]",0.0402,70.7,,,
"COc1ccnc(CN2CCC(O)(c3c(F)cc4c(c3F)CN(C3CCC(=O)NC3=O)C4=O)CC2)c1 (centres unmarked) [Compound 25, 3-(4,6-difluoro-5-(4-hydroxy-1-((4-methoxypyridin-2-yl)methyl)piperidin-4-yl)-1-oxoisoindolin-2-yl)piperidine-2,6-dione]",0.0482,67.4,,,
"CN(CCN1CCC(O)(c2c(F)cc3c(c2F)CN(C2CCC(=O)NC2=O)C3=O)CC1)Cc1ccccc1 (centres unmarked) [Compound 30, 3-(5-(1-(2-(benzyl(methyl)amino)ethyl)-4-hydroxypiperidin-4-yl)-4,6-difluoro-1-oxoisoindolin-2-yl)piperidine-2,6-dione]",0.192,57.8,,,
"COc1ccc(-n2cccn2)c(CN2CCC(O)(c3c(F)cc4c(c3F)CN(C3CCC(=O)NC3=O)C4=O)CC2)c1 (centres unmarked) [Compound 23, 3-(4,6-difluoro-5-(4-hydroxy-1-(5-methoxy-2-(1H-pyrazol-1-yl)benzyl)piperidin-4-yl)-1-oxoisoindolin-2-yl)piperidine-2,6-dione]",0.279,51.6,,,
"O=C1CCC(N2Cc3c(cc(F)c(C4(O)CCN(Cc5ccc(C(F)(F)F)cc5F)CC4)c3F)C2=O)C(=O)N1 (centres unmarked) [Compound 20, 3-(4,6-difluoro-5-(1-(2-fluoro-4-(trifluoromethyl)benzyl)-4-hydroxypiperidin-4-yl)-1-oxoisoindolin-2-yl)piperidine-2,6-dione]",0.0333,77.1,,,
